{
  "source": "patent US20260035384A1",
  "about": "“COMPOUND CONTAINING CYCLOHEXYL” (CHIA TAI TIANQING PHARMACEUTICAL GROUP CO., LTD., priority 2022, published 2026)",
  "key": {"[1]": {"target": "T1, AR in LNCaP cells (Homo sapiens, UniProt P10275, T878A)", "T1 construct": "Assay on Degradation Activity for AR in LNCaP Cells; endogenous in cells; host or cells: LNCaP cells", "T1 sequence (P10275 1-920 T878A)": "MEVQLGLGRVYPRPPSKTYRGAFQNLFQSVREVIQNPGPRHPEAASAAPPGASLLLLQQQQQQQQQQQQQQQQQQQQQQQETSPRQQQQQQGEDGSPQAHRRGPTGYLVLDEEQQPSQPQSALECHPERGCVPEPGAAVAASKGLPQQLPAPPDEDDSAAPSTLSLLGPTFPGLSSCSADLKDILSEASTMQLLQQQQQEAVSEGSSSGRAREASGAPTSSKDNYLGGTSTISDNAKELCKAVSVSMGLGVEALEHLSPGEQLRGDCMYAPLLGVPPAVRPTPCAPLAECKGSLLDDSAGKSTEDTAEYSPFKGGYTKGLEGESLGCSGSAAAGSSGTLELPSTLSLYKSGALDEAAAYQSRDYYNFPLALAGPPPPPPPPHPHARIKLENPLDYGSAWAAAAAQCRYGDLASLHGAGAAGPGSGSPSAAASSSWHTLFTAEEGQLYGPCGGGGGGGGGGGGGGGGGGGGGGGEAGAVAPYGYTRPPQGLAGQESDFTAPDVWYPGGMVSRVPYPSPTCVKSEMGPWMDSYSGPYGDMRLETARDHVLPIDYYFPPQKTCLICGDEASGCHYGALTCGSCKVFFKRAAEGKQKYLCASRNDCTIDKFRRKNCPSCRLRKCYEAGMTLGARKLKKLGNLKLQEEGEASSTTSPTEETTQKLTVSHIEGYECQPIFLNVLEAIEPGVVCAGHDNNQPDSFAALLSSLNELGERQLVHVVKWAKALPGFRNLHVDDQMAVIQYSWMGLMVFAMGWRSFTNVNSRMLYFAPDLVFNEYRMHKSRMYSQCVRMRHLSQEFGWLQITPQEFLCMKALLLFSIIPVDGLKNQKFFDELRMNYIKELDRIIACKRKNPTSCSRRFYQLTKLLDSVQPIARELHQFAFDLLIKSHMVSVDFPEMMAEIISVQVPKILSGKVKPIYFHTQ", "test": "Assay on degradation activity for AR in LNCaP cells (HTRF human androgen receptor detection kit)", "assay_type": "cell-based", "conditions": "24 h incubation", "outline": "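LNCaP cells seeded in 2% CSS-FBS phenol red-free 1640 medium overnight, then treated in duplicate with 500 nM–0.488 nM compound for 24 h. AR in lysates quantified by HTRF (Eu cryptate/d2 antibodies, 2 h, 25 °C, 665/620 nm); DC50 and Dmax from four-parameter fits.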"}, "[2]": {"test_system": "LNCaP cells", "test": "Assay on inhibitory activity for LNCaP cell proliferation (CCK-8)", "assay_type": "cell-based", "conditions": "Homo sapiens, 168 h incubation", "outline": "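Cells seeded at 1×10^5 cells/mL in phenol red-free 1640 with 2% CSS-FBS, treated at final 10000 nM-0.61 nM in duplicate. After 168 h incubation, viability read with CCK-8.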"}, "[3]": {"test_system": "VCaP cells", "test": "Assay on inhibitory activity for VCaP cell proliferation (CCK-8)", "assay_type": "cell-based", "conditions": "Homo sapiens, 168 h incubation", "outline": "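VCaP cells seeded at 1×10^5 cells/mL in phenol red-free DMEM with 5% charcoal-stripped FBS, treated in duplicate at 10000–0.61 nM final. After 168 h incubation, viability was read with CCK-8.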"}, "[4]": {"test": "In vitro stability in liver microsome", "assay_type": "in vitro ADME", "conditions": "human liver microsome 0.5 mg/mL, NADPH, 37° C.", "experimental": "Liver microsome incubation samples (species: human, monkey, rat, and mouse) were prepared by mixing a PBS buffer (pH=7.4), a liver microsome solution (0.5 mg/mL), a test compound, and an NADPH+MgCl2 solution and incubated at 37° C. and 300 rpm for 1 h. Zero-hour samples were prepared by mixing a PBS buffer (pH=7.4), a liver microsome solution (0.5 mg/mL), and a test compound. An acetonitrile solution containing an internal standard was added to the samples, and supernatants were prepared by protein precipitation, diluted, and then assayed by LC/MS/MS."}},
  "data": [
    {"smiles": "N#Cc1ccc(O[C@H]2CC[C@H](NC(=O)c3ccc(C4CCN(C5CN(c6cc7onc(C8CCC(=O)NC8=O)c7c7ccccc67)C5)CC4)nn3)CC2)cc1Cl", "note": "(some centres unmarked) [Compound 48]", "values": [
      {"measurement": "DC50", "setting": "[1]; HTRF", "result": "≤ 20", "unit": "nM"},
      {"measurement": "Dmax", "setting": "[1]; maximum degradation rate", "result": "> 80", "unit": "%"},
      {"measurement": "IC50", "setting": "[2]", "result": "< 1000", "unit": "nM"},
      {"measurement": "IC50", "setting": "[3]", "result": "< 100", "unit": "nM"},
      {"measurement": "Human liver microsome Residuals at 60 min (%)", "setting": "[4]", "result": ">85", "unit": "%"}
    ]}
  ]
}
